These results are taken from patent publication US20130183384A1, “IMMEDIATE RELEASE MULTI UNIT PELLET SYSTEM” (BOEHRINGER INGELHEIM INTERNATIONAL GMBH, priority 2011, published 2013).

A short description of the series: Sensitivity of the drug substance to hydrolysis. The class given is physicochemical. To be noted: especially at low pH. From the text:
Any formulation containing both organic acid as well as drug substance in close contact is therefore at a very high risk to decomposition, particularly in the presence of humidity. Therefore e.g. tartaric acid and active ingredient are kept separate in the formulation until the moment of application. A multiparticulate pellet approach is chosen. The drug substance is layered from an isopropanolic suspension onto seal coated spherical tartaric acid starter cores with approximately 0.6-0.8 mm diameter (FIG. 3 Structure of dabigatran etexilate pellets'.

`CCCCCCOC(=O)N=C(N)c1ccc(NCc2nc3cc(C(=O)N(CCC(=O)OCC)c4ccccn4)ccc3n2C)cc1` [Dabigatran etexilate mesilate, dabigatran etexilate methansulfonate]: the sensitivity to hydrolysis entry is given as “sensitive to hydrolysis especially at low pH”.
